Assay [1] deals with T1, Protein kinase C beta type (Homo sapiens, UniProt P05771). In words: Inhibition of human Protein kinase C beta 1 using [gamma-33P]-ATP.
For a further assay, the target named is Casein kinase 2 (Mus musculus, UniProt Q60737+P67871+O54833+Q8CH19). In words: Inhibition of Casein kinase 2 of P19 cells. Type of assay: cell-based.
The nature of assay [2]: Inhibition of Calcium/calmodulin-dependent protein kinase type II in P19 cells. The class given is cell-based, Mus musculus.
In assay [3] the target is T2, Protein kinase C zeta type (Homo sapiens, UniProt Q05513).
T2 sequence (Q05513 whole entry): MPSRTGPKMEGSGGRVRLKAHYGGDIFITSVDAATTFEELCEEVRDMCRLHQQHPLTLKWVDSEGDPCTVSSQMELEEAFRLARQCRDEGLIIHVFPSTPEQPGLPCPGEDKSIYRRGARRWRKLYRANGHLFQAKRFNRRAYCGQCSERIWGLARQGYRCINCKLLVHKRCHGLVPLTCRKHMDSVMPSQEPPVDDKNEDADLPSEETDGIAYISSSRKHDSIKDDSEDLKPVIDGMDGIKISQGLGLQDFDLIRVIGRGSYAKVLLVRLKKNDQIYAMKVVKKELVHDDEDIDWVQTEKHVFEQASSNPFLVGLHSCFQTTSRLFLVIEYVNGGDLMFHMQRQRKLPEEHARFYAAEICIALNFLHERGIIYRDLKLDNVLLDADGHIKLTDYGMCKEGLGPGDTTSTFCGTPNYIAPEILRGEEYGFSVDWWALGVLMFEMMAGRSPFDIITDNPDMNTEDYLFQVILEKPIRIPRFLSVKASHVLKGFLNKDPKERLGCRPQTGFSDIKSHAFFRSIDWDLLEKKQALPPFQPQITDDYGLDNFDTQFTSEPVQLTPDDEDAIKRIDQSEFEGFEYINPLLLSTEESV
As to the kind of experiment: Inhibition of Protein kinase C zeta.

The nature of assay [4]: Inhibition of Casein kinase 1 in P19 cells. Type of assay: cell-based, Mus musculus.
Assay [5] is described as follows: Inhibition of Protein kinase C epsilon.
Assay [6] deals with Mitogen-activated protein kinase 1 (Mus musculus, UniProt P63085). The class given is cell-based, P19.
Description: Inhibition of Mitogen-activated protein kinase/extracellular signal-regulated kinase 2 in P19 cells
For a further assay, the target named is Insulin receptor (Mus musculus, UniProt P15208). As to the kind of experiment: Inhibition of Insulin receptor kinase in P19 cells. The class given is cell-based.
Assay [7] can be described thus: Inhibition of Vascular endothelial growth factor receptor in P19 cells. Type of assay: cell-based, Mus musculus.
Assay [8] addresses Protein kinase C delta type (Homo sapiens, UniProt Q05655). In words: Inhibition of Protein kinase C delta.
Assay [9] addresses T1, Protein kinase C beta type. In words: Inhibition of IL-8 release by HEK293 cells expressing PKC-beta2. Type of assay: functional, cell-based.
For assay [10], the target named is Epidermal growth factor receptor (Mus musculus, UniProt Q01279). As to the kind of experiment: Inhibition of Epidermal growth factor receptor in P19 cells. The class given is cell-based.
For assay [11], the target named is Platelet-derived growth factor receptor (Mus musculus, UniProt P05622+P26618). In words: Inhibition of Platelet-derived growth factor receptor in P19 cells. The class given is cell-based.
Assay [12] is described as follows: Inhibition of Protein Kinase A in P19 cells. The class given is cell-based, Mus musculus.
In assay [13] the target is Cyclin-dependent kinase 1 (Mus musculus, UniProt P11440). In words: Inhibition of Cyclin-dependent kinase 1 in P19 cells. The class given is cell-based.
Assay [14] concerns the target Protein kinase C alpha type (Homo sapiens, UniProt P17252). As to the kind of experiment: Inhibition of human Protein kinase C alpha using [gamma-33P]-ATP.
Assay [15] deals with Protein kinase C gamma type (Homo sapiens, UniProt P05129). In words: Inhibition of human Protein kinase C gamma using [gamma-33P]-ATP.
Assay [16] addresses T1, Protein kinase C beta type. As to the kind of experiment: Inhibition of human Protein kinase C beta 2 using [gamma-33P]-ATP.
Assay [17] concerns the target Voltage-gated inwardly rectifying potassium channel KCNH2 (Homo sapiens, UniProt Q12809).
Description: Inhibition of [3H]astemizole binding to Potassium channel HERG
Assay [18] deals with T3, Protein kinase C zeta type (Homo sapiens) (UniProt Q05513).
T3 sequence (whole entry): T2 sequence (Q05513 whole entry)
As to the kind of experiment: Inhibition of Protein kinase C zeta at 10 uM.

Our source for the IC50, Ki and inhibition values is ChEMBL document CHEMBL1142718, “Novel indolylindazolylmaleimides as inhibitors of protein kinase C-beta: synthesis, biological activity, and cardiovascular safety” (J Med Chem, 2005).

T1 sequence (P05771 whole entry): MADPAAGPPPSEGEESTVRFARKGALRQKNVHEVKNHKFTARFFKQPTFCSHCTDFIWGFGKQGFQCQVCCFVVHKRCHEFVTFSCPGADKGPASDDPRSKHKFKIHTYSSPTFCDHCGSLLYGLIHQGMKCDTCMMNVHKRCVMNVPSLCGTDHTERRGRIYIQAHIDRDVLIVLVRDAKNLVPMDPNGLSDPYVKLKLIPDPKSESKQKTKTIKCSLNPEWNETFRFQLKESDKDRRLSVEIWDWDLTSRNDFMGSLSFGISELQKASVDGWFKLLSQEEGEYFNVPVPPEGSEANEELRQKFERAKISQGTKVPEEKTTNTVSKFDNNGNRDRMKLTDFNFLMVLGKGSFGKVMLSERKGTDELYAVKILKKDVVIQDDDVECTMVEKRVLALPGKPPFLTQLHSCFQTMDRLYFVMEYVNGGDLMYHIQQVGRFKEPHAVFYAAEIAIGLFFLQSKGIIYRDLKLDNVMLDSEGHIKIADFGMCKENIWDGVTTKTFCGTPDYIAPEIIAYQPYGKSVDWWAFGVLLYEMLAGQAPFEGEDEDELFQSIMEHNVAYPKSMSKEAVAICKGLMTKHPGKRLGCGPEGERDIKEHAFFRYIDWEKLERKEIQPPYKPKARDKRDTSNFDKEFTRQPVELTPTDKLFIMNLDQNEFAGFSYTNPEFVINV
Chain of Protein kinase C delta type (Q05655 whole entry): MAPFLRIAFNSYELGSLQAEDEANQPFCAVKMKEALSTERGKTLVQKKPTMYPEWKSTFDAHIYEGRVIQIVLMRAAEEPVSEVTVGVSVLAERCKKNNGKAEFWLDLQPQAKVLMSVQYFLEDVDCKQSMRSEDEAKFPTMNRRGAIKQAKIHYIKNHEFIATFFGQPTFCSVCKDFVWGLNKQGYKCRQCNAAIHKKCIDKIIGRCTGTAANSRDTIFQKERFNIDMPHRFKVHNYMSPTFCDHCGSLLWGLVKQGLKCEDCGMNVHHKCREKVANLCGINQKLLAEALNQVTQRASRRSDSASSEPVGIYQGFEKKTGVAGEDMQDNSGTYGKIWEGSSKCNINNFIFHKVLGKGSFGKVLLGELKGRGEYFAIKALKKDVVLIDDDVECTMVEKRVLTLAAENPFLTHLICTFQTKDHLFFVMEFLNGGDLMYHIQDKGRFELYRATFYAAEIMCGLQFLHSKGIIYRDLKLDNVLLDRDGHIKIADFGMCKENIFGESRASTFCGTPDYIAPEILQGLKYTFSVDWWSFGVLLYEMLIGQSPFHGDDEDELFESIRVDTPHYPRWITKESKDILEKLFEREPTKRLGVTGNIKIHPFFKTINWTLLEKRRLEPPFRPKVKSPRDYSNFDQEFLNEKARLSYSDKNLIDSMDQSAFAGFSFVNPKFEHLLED
Chain of Cyclin-dependent kinase 1 (P11440 whole entry): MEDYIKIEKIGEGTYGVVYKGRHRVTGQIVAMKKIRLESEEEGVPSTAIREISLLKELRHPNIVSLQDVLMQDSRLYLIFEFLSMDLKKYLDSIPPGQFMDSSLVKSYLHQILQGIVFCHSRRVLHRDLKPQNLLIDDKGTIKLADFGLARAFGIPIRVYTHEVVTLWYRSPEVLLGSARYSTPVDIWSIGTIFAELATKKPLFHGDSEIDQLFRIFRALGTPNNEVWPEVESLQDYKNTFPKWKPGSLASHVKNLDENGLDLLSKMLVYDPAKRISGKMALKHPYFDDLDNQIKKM
Chain of Mitogen-activated protein kinase 1 (P63085 whole entry): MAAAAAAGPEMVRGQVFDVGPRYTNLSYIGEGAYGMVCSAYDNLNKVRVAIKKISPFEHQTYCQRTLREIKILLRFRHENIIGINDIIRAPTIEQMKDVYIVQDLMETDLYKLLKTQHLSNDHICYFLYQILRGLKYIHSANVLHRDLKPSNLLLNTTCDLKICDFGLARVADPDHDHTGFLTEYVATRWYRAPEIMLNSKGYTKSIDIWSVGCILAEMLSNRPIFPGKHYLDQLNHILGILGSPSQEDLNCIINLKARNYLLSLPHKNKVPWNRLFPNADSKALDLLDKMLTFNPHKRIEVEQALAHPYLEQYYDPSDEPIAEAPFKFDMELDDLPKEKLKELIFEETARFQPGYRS
Chain of Voltage-gated inwardly rectifying potassium channel KCNH2 (Q12809 whole entry): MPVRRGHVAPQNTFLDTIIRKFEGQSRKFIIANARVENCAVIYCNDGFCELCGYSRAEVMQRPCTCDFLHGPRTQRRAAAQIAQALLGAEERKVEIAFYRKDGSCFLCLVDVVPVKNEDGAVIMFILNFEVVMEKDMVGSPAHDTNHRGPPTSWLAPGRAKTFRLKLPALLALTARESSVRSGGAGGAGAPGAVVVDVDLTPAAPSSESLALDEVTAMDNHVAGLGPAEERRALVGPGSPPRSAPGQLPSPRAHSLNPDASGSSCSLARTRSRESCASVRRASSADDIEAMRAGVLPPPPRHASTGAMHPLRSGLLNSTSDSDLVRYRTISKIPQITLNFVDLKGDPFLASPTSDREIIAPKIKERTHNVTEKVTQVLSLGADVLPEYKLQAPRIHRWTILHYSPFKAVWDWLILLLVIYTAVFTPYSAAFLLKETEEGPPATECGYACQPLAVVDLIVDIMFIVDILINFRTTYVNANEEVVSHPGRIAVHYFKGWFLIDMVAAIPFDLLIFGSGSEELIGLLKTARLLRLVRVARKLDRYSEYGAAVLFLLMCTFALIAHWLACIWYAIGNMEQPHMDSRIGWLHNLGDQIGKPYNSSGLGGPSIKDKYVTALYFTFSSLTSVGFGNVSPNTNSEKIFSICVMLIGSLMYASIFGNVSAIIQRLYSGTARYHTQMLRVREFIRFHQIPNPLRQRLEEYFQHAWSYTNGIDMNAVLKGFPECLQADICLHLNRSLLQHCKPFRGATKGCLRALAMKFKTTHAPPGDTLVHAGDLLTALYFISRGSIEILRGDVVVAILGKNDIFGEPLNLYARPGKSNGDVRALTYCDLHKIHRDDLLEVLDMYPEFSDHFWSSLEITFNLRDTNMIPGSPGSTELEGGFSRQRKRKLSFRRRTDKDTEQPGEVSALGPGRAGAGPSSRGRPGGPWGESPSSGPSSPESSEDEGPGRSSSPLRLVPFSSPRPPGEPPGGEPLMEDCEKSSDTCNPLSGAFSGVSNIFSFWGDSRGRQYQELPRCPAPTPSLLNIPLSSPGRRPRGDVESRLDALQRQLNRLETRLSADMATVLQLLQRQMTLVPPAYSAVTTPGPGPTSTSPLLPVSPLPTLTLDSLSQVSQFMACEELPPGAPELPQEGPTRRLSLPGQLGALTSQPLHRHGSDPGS

`CN(C)CCCn1nc(C2=C(c3cn(-c4cnc5ccccc5c4)c4ccccc34)C(=O)NC2=O)c2ccccc21`: the IC50 in assay [1] is 7 nM; against Casein kinase 2, more than 10000 nM; in [2], more than 10000 nM; in assay [3], 5700 nM; in assay [4], more than 10000 nM; in assay [5] it was 140 nM. In addition, the IC50 in assay [6] was more than 10000 nM; against Insulin receptor, more than 10000 nM; in assay [7], more than 10000 nM; in assay [8], 31 nM; in assay [9], 20 nM; in [10] it was more than 10000 nM. Besides, the IC50 in assay [11] is 5900 nM; in [12], more than 10000 nM; in assay [13], 1600 nM.

Consider `CN[C@@H]1C[C@H]2O[C@@](C)([C@@H]1OC)n1c3ccccc3c3c4c(c5c6ccccc6n2c5c31)C(=O)NC4` [STAUROSPORINE], for which the concentration for half-maximal inhibition (IC50) on Casein kinase 2 is more than 10000 nM; in assay [2], 6 nM; in assay [4] it was 1400 nM; in assay [7], 14 nM; in assay [11], 2 nM; in [12], 4 nM. The same compound came in with an IC50 in assay [13] of 8 nM.

Turning to `CN(C)CCCn1nc(C2=C(c3cn(-c4cccc5ccccc45)c4ccccc34)C(=O)NC2=O)c2ccccc21`, the half-maximal inhibitory concentration (IC50) in [1] is 87 nM; against Casein kinase 2 it was more than 10000 nM; in assay [2] it was more than 10000 nM; in assay [3], more than 10000 nM; in assay [4], more than 10000 nM; in assay [5], 4200 nM. Besides, the half-maximal inhibitory concentration (IC50) was more than 10000 nM in assay [6]; more than 10000 nM on Insulin receptor; 6900 nM in assay [7]; 1200 nM in assay [14]; 2200 nM in [8]; 600 nM in assay [9]. In addition, the IC50 in [10] was more than 10000 nM; in assay [11] it was more than 10000 nM; in assay [12], more than 10000 nM; in assay [15], 3400 nM; in assay [13], 1900 nM.

Consider `O=C1NC(=O)C(c2cn(-c3cccnc3)c3ccccc23)=C1c1[nH]nc2ccccc12`, for which the IC50 in assay [1] was found to be 460 nM; in [16] it was 220 nM; in assay [14], 1000 nM.

As for `O=C1NC(=O)C(c2nn(CCCN3CCCC3)c3ccccc23)=C1c1cn(-c2ccc3ccccc3c2)c2ccccc12`, the 50% inhibitory concentration (IC50) in assay [1] turned out to be 120 nM; in assay [9], 170 nM. This compound came in with a Ki in [17] of 11 nM.

With `CN1CCN(CCCn2nc(C3=C(c4cn(-c5ccc6ccccc6c5)c5ccccc45)C(=O)NC3=O)c3ccccc32)CC1`, the IC50 in [1] was determined as 62 nM; in [16], 92 nM; in assay [14], 320 nM. For the same compound, affinity in [17] was put at a Ki of 290 nM.

Regarding `CN(C)CCCn1nc(C2=C(c3cn(-c4csc5ccccc45)c4ccccc34)C(=O)NC2=O)c2ccccc21`, the IC50 was 86 nM in [1]; more than 10000 nM on Casein kinase 2; 5600 nM in [2]; more than 10000 nM in [3]; more than 10000 nM in assay [4]; 3100 nM in assay [5]. For the same compound, the concentration for half-maximal inhibition (IC50) in assay [6] is more than 10000 nM; on Insulin receptor it was more than 10000 nM; in assay [7], more than 10000 nM; in assay [8], 1500 nM; in assay [9], 630 nM; in assay [10], more than 10000 nM. Further, the IC50 in assay [11], in assay [12] and in assay [13] was more than 10000 nM each time.

Turning to `CN(C)CCCn1nc(C2=C(c3cn(-c4cccnc4)c4ccccc34)C(=O)NC2=O)c2ccccc21`, the IC50 is 19 nM in assay [1]; more than 10000 nM against Casein kinase 2; 3800 nM in assay [2]; 4400 nM in assay [3]; more than 10000 nM in assay [4]; 330 nM in [5]. Further, the IC50 is more than 10000 nM in assay [6]; more than 10000 nM at Insulin receptor; 3700 nM in [7]; 120 nM in assay [14]; 250 nM in assay [8]; 82 nM in assay [9]. The IC50 in assay [10] is more than 10000 nM; in [11], 5200 nM; in assay [12], more than 10000 nM; in assay [15] it was 210 nM; in assay [13] it was 310 nM.

Regarding `CN(C)CCCn1nc(C2=C(c3cn(-c4cccs4)c4ccccc34)C(=O)NC2=O)c2ccccc21`, the IC50 is 15 nM in [1]; more than 10000 nM at Casein kinase 2; 7000 nM in [2]; more than 10000 nM in [4]; 140 nM in assay [5]; 10 nM in assay [16]. The IC50 is more than 10000 nM in [6]; more than 10000 nM on Insulin receptor; 5000 nM in assay [7]; 220 nM in assay [14]; 86 nM in assay [8]; 75 nM in assay [9]. Also, the concentration for half-maximal inhibition (IC50) in [10] is more than 10000 nM; in [11], 2200 nM; in [12], 6200 nM; in assay [15], 280 nM. In addition, the inhibition in assay [18] stood at 57%.

`CN(C)CCCn1nc(C2=C(c3cn(-c4ccc5ccccc5c4)c4ccccc34)C(=O)NC2=O)c2ccccc21`: the IC50 in assay [1] was 33 nM; against Casein kinase 2 it was more than 10000 nM; in assay [2], 6100 nM; in assay [3], 6200 nM; in assay [4] it was more than 10000 nM; in assay [5], 330 nM. Further, the IC50 in assay [6] was more than 10000 nM; against Insulin receptor it was more than 10000 nM; in [7], 1000 nM; in assay [8], 490 nM; in [9], 24 nM; in assay [10], more than 10000 nM. Besides, the concentration for half-maximal inhibition (IC50) in [11] is 5900 nM; in assay [12], more than 10000 nM; in [15], 110 nM; in assay [13], 1300 nM.

Turning to `O=C1NC(=O)C(c2nn(CCCN3CCOCC3)c3ccccc23)=C1c1cn(-c2ccc3ccccc3c2)c2ccccc12`, the figures for the IC50 in assay [1] and in assay [9] were 190 nM and 72 nM, respectively. Further, the Ki in assay [17] amounted to 850 nM.

As to `CN(C)CCCn1nc(C2=C(c3cn(-c4ccccc4)c4ccccc34)C(=O)NC2=O)c2ccccc21`, the IC50 in assay [1] came to 46 nM; in assay [16] it was 13 nM; in assay [14], 150 nM; in assay [15], 370 nM.

For the compound `CN(C)CCCn1nc(C2=C(c3cn(-c4cncc5ccccc45)c4ccccc34)C(=O)NC2=O)c2ccccc21`, the IC50 in assay [1] is 92 nM; in [9] it was 86 nM; in assay [15], 250 nM.

Usually IC50 stands for the concentration at which inhibition is half-maximal. In general, Ki refers to a dissociation constant, usually derived from enzyme kinetics or from competition with a known ligand. A higher Ki goes with weaker binding. Usually inhibition stands for the share of the control response that was lost under treatment.
